Assay results: ChEMBL document CHEMBL1150761, “Additional biologically active constituents of the Chinese tallow tree (Sapium sebiferum)” (1988)
Values after ≈ are worked out from the molar mass of the structure shown.

The compounds below were run on P388 (assay: Cytotoxicity against mouse P388 cells). Details: read-out: ED50 (the source's name).
Type: functional
With O=C(O)c1cc(O)c(O)c(O)c1 [GALLIC ACID] the EC50 was 0.7 µg/mL (≈ 4.11 µM).
Compound CC1(C)CC(O)C[C@@]2(C)OC(=O)C=C12 (stereo partly specified) has an EC50 of 15 µg/mL (≈ 76.4 µM).
O=c1c(O)c(-c2ccc(O)c(O)c2)oc2cc(O)cc(O)c12 [QUERCETIN] was tested, and the EC50 was 40 µg/mL (≈ 132 µM).
In the case of CC[C@H](CC[C@@H](C)[C@H]1CC[C@H]2[C@@H]3CC=C4C[C@@H](O[C@@H]5O[C@H](CO)[C@@H](O)[C@H](O)[C@H]5O)CC[C@]4(C)[C@H]3CC[C@]12C)C(C)C [SITOGLUSIDE], the EC50 is reported as 53 µg/mL (≈ 91.9 µM).
Work on O=c1c(O)c(-c2ccc(O)cc2)oc2cc(O)cc(O)c12 [KAEMPFEROL] yielded an EC50 of 6.7 µg/mL (≈ 23.4 µM).
O=c1c(O[C@@H]2O[C@H](CO)[C@@H](O)[C@H](O)[C@H]2O)c(-c2ccc(O)cc2)oc2cc(O)cc(O)c12 [ASTRAGALIN] gave an EC50 of 8.2 µg/mL (≈ 18.3 µM).
